Assay results: US10421754B2, “Quinazoline derivative” (CSPC ZHONGQI PHARMACEUTICAL TECHNOLOGY (SHIJIAZHUANG) CO., …, priority 2014, dated 2019)

Key:
HCT116 = assay: In vitro cell experiment (MTT), HCT116; format: cell-based; conditions: HCT-116, 72 h, human colon carcinoma cells
Experimental: (§1) Cells in logarithmic growth phase were seeded at a certain density in a 96-well plate (200 μL/well). The cells were allowed to grow for 24 h and subsequently treated with different concentrations of drugs (including a blank group and a control group) and incubated for 72 h at 37° C. Each concentration in a given experiment was tested in triplicate. After 72 h of exposure, 20 μL of the MTT labeling reagent was added to the medium (the final concentration of MTT was 0.5 mg/mL), and the cells were incubated for additional 4 h at 37° C. Following this process, 180 μL of the medium was removed and 130 μL of DMSO was added to each well, or the medium was completely removed and 150 μL of DMSO was added to each well. Then the plate was shaken and mixed in a micro-oscillator. Finally the optical density (OD) of each sample was measured in a micro-plate reader at 550 nm. Cell inhibition rate was calculated according to the following formula: […]
(§2) According to cell inhibition rates, IC50 was calculated by LOGIT method. The experiments were repeated twice and the data was expressed as means±SD.

HT-29 = assay: In vitro cell experiment (MTT), HT-29; format: cell-based; conditions: 72 h, human colon carcinoma cells (expressing both c-KIT and PDGFR)
Experimental: as §1, §2

TT = assay: In vitro cell experiment (MTT), TT; format: cell-based; conditions: 72 h, human thyroid carcinoma cells (RET C634W mutation)
Experimental: as §1, §2

3T3swiss = assay: In vitro cell experiment (MTT), 3T3swiss; format: cell-based; conditions: Fibroblast, 72 h, mouse fibroblasts (PDGFR overexpressing)
Experimental: as §1, §2

SGC7901 = assay: In vitro cell experiment (MTT), SGC7901; format: cell-based; conditions: SGC-7901, 72 h, human gastric carcinoma cells
Experimental: as §1, §2

FLT-1 = FLT-1 (Homo sapiens, UniProt P17948); assay: In vitro enzyme experiment (ELISA), FLT-1; format: biochemical; conditions: Poly (Glu, Tyr)4:1 substrate, 5 μM ATP
Experimental: FLT-1: Human vascular endothelial growth factor receptor 1
(§3) ELISA: The enzyme plate was coated by enzyme reaction substrate (Poly (Glu, Tyr)4:1) at a density of 20 μg/ml. Then the enzyme, the sample and 5 μM ATP were mixed in the well to react. After the reaction, the substrate phosphorylation was detected by anti-phosphotyrosine monoclonal antibody (4G10). In the next step, the goat-anti-mouse IgG linking with horse radish peroxidase (HRP) and tetramethylbenzidine (TMB) were added sequentially in the well to evaluate the level of substrate phosphorylation by the degree of color depth. In the experiment, a blank group without tyrosine kinase and a control group with the corresponding concentration of DMSO were established. Finally, 50 μL/well of H2SO4 at a concentration of 0.18M was added in each well to stop the reaction. The optical density (OD) of each sample was measured in a micro-plate reader at 450 nm.
(§4) The relative inhibition rate of the compound against tyrosine kinase protein was determined.
(§5) According to the inhibition rates at different concentrations, IC50 was calculated by LOGIT method. The experiments were repeated three times, and the average of three IC50 values was the final index to evaluate the ability of inhibition.

SK-OV-3 = assay: In vitro cell experiment (MTT), SK-OV-3; format: cell-based; conditions: 72 h, human ovarian carcinoma cells (EGFR2 overexpressing)
Experimental: as §1, §2

PDGFRβ = PDGFRβ (Homo sapiens, UniProt P09619); assay: In vitro enzyme experiment (ELISA), PDGFRβ; format: biochemical; conditions: Poly (Glu, Tyr)4:1 substrate, 5 μM ATP
Experimental: PDGFRβ: Platelet-derived growth factor receptor β
as §3, §4, §5

HCC827 = assay: In vitro cell experiment (MTT), HCC827; format: cell-based; conditions: 72 h, human non-small cell lung carcinoma (EGFR1 19 exon mutation)
Experimental: as §1, §2

EGFR = EGFR (Homo sapiens, UniProt P00533); assay: In vitro enzyme experiment (ELISA), EGFR; format: biochemical; conditions: Poly (Glu, Tyr)4:1 substrate, 5 μM ATP
Chain of EGFR (P00533 25-1210): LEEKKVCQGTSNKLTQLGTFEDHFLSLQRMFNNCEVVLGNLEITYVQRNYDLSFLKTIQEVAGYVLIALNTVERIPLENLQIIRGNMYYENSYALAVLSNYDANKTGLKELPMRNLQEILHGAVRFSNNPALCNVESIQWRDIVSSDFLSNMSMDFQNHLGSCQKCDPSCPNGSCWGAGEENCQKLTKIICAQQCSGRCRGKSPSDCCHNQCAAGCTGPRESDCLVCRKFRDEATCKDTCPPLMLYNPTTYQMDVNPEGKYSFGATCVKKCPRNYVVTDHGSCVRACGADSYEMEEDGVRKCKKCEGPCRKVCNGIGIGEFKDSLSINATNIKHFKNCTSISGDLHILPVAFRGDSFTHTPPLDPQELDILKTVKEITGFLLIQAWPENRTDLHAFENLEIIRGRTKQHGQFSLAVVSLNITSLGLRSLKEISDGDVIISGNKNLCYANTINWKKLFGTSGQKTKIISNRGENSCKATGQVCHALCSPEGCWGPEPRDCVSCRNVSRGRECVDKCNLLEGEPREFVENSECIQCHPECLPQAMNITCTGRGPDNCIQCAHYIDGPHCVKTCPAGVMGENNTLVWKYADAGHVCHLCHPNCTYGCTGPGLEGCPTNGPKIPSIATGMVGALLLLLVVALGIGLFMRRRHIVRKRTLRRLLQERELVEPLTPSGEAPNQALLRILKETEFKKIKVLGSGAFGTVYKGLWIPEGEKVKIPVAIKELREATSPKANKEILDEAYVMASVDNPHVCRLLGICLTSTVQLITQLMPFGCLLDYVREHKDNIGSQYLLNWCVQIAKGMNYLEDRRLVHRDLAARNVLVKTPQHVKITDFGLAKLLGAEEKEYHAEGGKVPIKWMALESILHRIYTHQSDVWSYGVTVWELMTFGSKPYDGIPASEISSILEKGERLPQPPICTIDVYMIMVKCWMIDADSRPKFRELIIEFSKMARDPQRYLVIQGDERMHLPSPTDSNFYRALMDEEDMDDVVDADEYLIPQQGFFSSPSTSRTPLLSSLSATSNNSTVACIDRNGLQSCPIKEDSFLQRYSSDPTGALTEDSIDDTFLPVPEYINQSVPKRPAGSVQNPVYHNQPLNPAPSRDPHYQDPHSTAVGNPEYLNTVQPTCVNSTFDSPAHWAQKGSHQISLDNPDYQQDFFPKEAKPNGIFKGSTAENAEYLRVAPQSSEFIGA
Experimental: EGFR: Human epidermal growth factor receptor 1
as §3, §4, §5

A375 = assay: In vitro cell experiment (MTT), A375; format: cell-based; conditions: A-375, 72 h, human melanoma cells (KDR expressing)
Experimental: as §1, §2

HUVEC = assay: In vitro cell experiment (MTT), HUVEC; format: cell-based; conditions: 72 h, human umbilical vein endothelial cell (KDR overexpressing)
Experimental: as §1, §2

PC-9 = assay: In vitro cell experiment (MTT), PC-9; format: cell-based; conditions: 72 h, human non-small-cell lung carcinoma cells (EGFR1 19 exon mutation)
Experimental: as §1, §2

A498 = assay: In vitro cell experiment (MTT), A498; format: cell-based; conditions: 72 h, human renal carcinoma cells
Experimental: as §1, §2

A549 = assay: In vitro cell experiment (MTT), A549; format: cell-based; conditions: 72 h, human non-small-cell lung carcinoma cells (EGFR1 wildtype)
Experimental: as §1, §2

H292 = assay: In vitro cell experiment (MTT), H292; format: cell-based; conditions: NCI-H292, 72 h, human lung carcinoma cells (EGFR1 overexpressing)
Experimental: as §1, §2

FGFR-1 = FGFR-1 (Homo sapiens, UniProt P11362); assay: In vitro enzyme experiment (ELISA), FGFR-1; format: biochemical; conditions: Poly (Glu, Tyr)4:1 substrate, 5 μM ATP
Chain of FGFR-1 (P11362 22-822, species assumed): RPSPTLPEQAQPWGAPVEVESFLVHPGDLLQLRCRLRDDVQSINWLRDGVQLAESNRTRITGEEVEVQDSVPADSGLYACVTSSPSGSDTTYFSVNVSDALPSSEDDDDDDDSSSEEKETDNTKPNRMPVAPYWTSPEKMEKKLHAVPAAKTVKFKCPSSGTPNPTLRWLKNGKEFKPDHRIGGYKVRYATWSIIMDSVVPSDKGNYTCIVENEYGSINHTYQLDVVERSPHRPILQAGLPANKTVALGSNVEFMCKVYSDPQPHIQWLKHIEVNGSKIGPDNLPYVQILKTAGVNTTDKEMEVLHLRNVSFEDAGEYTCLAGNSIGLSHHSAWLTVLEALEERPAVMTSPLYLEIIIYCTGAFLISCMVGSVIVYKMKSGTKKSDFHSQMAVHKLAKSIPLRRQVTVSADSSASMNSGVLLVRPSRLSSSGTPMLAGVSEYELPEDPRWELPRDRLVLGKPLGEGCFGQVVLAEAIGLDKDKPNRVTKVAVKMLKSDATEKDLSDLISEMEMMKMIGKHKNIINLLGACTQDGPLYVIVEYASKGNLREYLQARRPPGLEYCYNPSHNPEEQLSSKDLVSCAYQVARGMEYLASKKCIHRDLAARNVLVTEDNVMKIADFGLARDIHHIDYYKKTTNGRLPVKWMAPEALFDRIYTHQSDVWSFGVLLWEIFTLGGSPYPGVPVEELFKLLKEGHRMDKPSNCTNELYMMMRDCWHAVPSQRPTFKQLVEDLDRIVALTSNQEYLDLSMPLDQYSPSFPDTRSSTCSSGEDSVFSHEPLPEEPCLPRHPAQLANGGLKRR
Experimental: FGFR-1: Fibroblast growth factor receptor 1
as §3, §4, §5

RET = RET (Homo sapiens, UniProt P07949); assay: In vitro enzyme experiment (ELISA), RET; format: biochemical; conditions: Poly (Glu, Tyr)4:1 substrate, 5 μM ATP
Chain of RET (P07949 29-1114, species assumed): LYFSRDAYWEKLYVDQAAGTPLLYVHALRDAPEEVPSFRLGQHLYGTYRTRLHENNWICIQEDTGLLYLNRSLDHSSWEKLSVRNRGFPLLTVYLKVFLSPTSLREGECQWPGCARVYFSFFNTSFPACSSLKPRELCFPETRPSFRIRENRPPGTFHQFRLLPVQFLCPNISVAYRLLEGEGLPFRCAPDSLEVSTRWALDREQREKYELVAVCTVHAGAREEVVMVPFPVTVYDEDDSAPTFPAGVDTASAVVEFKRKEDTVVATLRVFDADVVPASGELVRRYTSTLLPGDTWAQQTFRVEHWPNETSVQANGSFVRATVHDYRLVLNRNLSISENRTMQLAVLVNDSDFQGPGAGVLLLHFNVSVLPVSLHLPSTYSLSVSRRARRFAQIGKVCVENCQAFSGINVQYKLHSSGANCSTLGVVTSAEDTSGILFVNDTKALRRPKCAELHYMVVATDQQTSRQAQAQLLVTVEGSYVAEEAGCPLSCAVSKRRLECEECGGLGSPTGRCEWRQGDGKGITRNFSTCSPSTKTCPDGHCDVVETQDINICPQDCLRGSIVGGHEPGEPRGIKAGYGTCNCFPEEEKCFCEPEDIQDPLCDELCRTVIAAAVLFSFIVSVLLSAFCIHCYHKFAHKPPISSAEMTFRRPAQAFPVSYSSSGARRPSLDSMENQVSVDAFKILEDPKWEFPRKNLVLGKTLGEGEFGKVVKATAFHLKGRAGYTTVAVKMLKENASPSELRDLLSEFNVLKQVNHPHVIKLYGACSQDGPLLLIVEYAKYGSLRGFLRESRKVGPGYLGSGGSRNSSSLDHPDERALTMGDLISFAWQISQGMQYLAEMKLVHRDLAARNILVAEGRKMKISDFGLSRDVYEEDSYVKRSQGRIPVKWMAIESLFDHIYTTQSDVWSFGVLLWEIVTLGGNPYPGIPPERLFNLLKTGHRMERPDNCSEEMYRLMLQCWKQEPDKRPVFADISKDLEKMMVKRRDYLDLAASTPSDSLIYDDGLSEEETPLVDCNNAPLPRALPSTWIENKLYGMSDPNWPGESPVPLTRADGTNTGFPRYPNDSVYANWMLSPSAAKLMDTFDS
Experimental: RET: A receptor involved in thyroid cancer
as §3, §4, §5

BTK = BTK (Homo sapiens, UniProt Q06187); assay: In vitro enzyme experiment (ELISA), BTK; format: biochemical; conditions: Poly (Glu, Tyr)4:1 substrate, 5 μM ATP
Experimental: BTK: Bruton tyrosine kinase
as §3, §4, §5

A431 = assay: In vitro cell experiment (MTT), A431; format: cell-based; conditions: A-431, 72 h, human epidermoid carcinoma (EGFR1 overexpressing)
Experimental: as §1, §2

KDR = KDR (Homo sapiens, UniProt P35968); assay: In vitro enzyme experiment (ELISA), KDR; format: biochemical; conditions: Poly (Glu, Tyr)4:1 substrate, 5 μM ATP
Chain of KDR (P35968 20-1356): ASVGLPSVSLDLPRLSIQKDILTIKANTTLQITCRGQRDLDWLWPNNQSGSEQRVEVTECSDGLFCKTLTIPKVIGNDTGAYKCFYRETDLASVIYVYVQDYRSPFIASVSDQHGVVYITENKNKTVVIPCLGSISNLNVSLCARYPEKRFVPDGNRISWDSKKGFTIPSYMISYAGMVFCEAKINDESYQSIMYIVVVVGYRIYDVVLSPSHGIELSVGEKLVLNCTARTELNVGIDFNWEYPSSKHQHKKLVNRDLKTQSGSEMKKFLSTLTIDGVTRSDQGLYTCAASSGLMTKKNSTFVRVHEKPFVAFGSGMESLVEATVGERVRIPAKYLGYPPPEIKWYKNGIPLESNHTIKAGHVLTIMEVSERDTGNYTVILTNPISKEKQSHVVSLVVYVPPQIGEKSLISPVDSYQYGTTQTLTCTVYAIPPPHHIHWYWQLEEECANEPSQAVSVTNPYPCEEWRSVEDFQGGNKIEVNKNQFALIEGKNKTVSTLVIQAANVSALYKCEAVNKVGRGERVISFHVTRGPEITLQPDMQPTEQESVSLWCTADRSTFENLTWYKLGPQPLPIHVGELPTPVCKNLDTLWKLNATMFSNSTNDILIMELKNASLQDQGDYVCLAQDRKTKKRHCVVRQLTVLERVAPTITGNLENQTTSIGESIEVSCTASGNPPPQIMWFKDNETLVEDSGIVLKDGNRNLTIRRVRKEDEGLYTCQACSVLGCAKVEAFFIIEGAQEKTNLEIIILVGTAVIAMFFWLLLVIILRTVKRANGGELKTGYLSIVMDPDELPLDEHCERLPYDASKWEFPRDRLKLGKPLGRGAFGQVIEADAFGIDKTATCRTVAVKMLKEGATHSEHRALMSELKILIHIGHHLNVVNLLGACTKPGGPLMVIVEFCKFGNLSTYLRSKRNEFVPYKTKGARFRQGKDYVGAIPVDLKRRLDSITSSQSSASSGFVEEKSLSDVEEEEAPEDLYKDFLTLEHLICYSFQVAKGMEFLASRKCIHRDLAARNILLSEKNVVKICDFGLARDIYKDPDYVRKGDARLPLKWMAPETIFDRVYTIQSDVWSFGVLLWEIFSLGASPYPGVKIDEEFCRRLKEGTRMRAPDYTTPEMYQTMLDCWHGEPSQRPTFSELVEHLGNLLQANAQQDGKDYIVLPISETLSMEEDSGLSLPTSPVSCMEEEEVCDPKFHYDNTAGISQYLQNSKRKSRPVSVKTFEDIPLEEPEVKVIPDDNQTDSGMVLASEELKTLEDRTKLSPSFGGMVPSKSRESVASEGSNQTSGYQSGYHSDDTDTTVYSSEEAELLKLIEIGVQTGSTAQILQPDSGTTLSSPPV
Experimental: KDR: Human vascular endothelial growth factor receptor 2
as §3, §4, §5

Eca109 = assay: In vitro cell experiment (MTT), Eca109; format: cell-based; conditions: ECa-109, 72 h, human esophageal carcinoma cells
Experimental: as §1, §2

CFPAC-1 = assay: In vitro cell experiment (MTT), CFPAC-1; format: cell-based; conditions: 72 h, human pancreatic carcinoma cells
Experimental: as §1, §2

AXL = AXL (Homo sapiens, UniProt P30530); assay: In vitro enzyme experiment (ELISA), AXL; format: biochemical; conditions: Poly (Glu, Tyr)4:1 substrate, 5 μM ATP
Chain of AXL (P30530 473-894): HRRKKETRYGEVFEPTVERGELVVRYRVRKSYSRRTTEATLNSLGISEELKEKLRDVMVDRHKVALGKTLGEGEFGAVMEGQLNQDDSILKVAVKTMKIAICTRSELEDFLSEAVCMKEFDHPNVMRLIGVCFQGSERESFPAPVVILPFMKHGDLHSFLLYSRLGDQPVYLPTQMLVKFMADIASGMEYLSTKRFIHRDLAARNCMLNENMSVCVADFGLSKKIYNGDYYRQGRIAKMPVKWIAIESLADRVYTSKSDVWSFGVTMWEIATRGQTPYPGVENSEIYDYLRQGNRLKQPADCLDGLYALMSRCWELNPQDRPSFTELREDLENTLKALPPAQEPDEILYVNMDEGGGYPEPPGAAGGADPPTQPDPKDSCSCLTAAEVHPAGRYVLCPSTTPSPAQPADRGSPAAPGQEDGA
Experimental: as §3, with “AXL: Anaplastic lymphoma kinase Methods: ELISA:” for “ELISA:”, “nm. The relative inhibition rate of the compound against tyrosine kinase protein was determined. According to the inhibition rates at different concentrations, IC50 was calculated by LOGIT method. The experiments were repeated three times, and the average of three IC50 values was the final index to evaluate the ability of inhibition.” for “nm.”

Bel-7402 = assay: In vitro cell experiment (MTT), Bel-7402; format: cell-based; conditions: 72 h, human hepatoma carcinoma cells
Experimental: as §1, §2

[1] = Mouse maximum tolerated dose (MTD) experiment; conditions: in vivo, mice, oral, administered 7 days then observed 7 days
Experimental: In the mouse MTD experiment, the mice were administrated with the present compounds.
Healthy mice, having a small difference in body's weights, were chosen. The chosen mice were placed in different layers of cages according to their body's weights. In each layer, the mice were randomly divided into groups. In each group, there were three mice.
The administration dosages were 1000, 500, 250, 125, 62.5 and 31.25 mg/kg respectively and each two dosages differed by a factor of 2. For each of administration dosages, three mice were allotted. The mice were administrated with the present compounds for 7 days and then observed for the next 7 days without the present compounds.
The present compounds were orally administrated with the mice according to the administration dosage and the body weight.

Row | Compound | IC50 (HCT116) [µM] | IC50 (HT-29) [µM] | IC50 (TT) [µM] | IC50 (3T3swiss) [µM] | IC50 (SGC7901) [µM] | IC50 (FLT-1) [µM] | IC50 (SK-OV-3) [µM] | IC50 (PDGFRβ) [µM] | IC50 (A375) [µM] | IC50 (HUVEC) [µM] | IC50 (PC-9) [µM] | IC50 (A498) [µM] | IC50 (A549) [µM] | IC50 (H292) [µM] | IC50 (FGFR-1) [µM] | IC50 (RET) [µM] | IC50 (BTK) [µM] | IC50 (A431) [µM] | IC50 (KDR) [µM] | IC50 (Eca109) [µM] | other results
1 | COc1cc2c(Nc3ccc(Br)cc3F)ncnc2cc1OCCCN1CCCCC1 [Compound 45, 4-(2-fluoro-4-bromoanilino)-6-methoxy-7-(3-(piperidin-1-yl)-propoxy)quinazoline, reference compound] | 1.06 | 3.41 | 0.315 | 3.79 | 6.26 | 0.0501 | 4.99 | 0.328 | 0.289 | 0.187 | 0.0187 | 3.15 | 5.02 | 0.105 | 0.0416 | 0.0275 | 0.414 | 4.15 | 0.0386 | 7.02 | IC50 (HCC827): 0.0097 µM; IC50 (EGFR): 0.159 µM; IC50 (CFPAC-1): 6.72 µM; IC50 (AXL): 2.99 µM; IC50 (Bel-7402): 6.26 µM
2 | COc1cc2c(Nc3ccc(Cl)cc3F)ncnc2cc1OCCCN1CCCC1 [Compound 44, 4-(2-fluoro-4-chloroanilino)-6-methoxy-7-(3-(pyrrolidin-1-yl)-propoxy)quinazoline, reference compound] | 0.988 | 3.46 | 0.257 | 2.9 | 5.25 | 0.0512 | 4.03 | 0.306 | 0.315 | 0.199 | 0.0168 | 3.05 | 4.9 | 0.124 | 0.0398 | 0.0234 | 0.424 | 3.57 | 0.0405 | 6.98 | IC50 (CFPAC-1): 6.72 µM; IC50 (AXL): 2.99 µM; IC50 (Bel-7402): 9.68 µM
3 | COc1cc2c(Nc3ccc(F)c(Cl)c3)ncnc2cc1OCCCCN(C)C [Compound 37, 4-(3-chloro-4-fluoroanilino)-6-methoxy-7-(4-(dimethylamino)-butoxy)quinazoline] | 0.562 | 2.5 | 0.134 | 1.55 | 4.02 | 0.0304 | 2.09 | 0.189 | 0.0782 | 0.0295 | 0.0087 | 2.16 | 1.77 | 0.0396 | 0.0277 | 0.0158 | 0.312 | 1.09 | 0.0159 | 5.75 | IC50 (HCC827): 0.0006 µM; IC50 (EGFR): 0.0985 µM; MTD [1]: 250 to 500 mg/kg; IC50 (CFPAC-1): 5.86 µM; IC50 (AXL): 1.72 µM; IC50 (Bel-7402): 5.59 µM
4 | COc1cc2c(Nc3ccc(Br)cc3F)ncnc2cc1OCCCN(C)C [Compound 29, 4-(4-bromo-2-fluoroanilino)-6-methoxy-7-(3-(dimethylamino)-propoxy)quinazoline] | 0.652 | 2.17 | 0.127 | 1.37 | 4.45 | 0.0308 | 2.56 | 0.246 | 0.102 | 0.0238 | 0.0071 | 2.36 | 2.16 | 0.0456 | 0.0246 | 0.0134 | 0.26 | 2.74 | 0.0174 | 5.42 | IC50 (HCC827): 0.0006 µM; IC50 (EGFR): 0.127 µM; MTD [1]: 125 to 250 mg/kg; IC50 (CFPAC-1): 5.15 µM; IC50 (AXL): 1.83 µM; IC50 (Bel-7402): 5.88 µM
5 | COc1cc2c(Nc3ccc(Br)cc3F)ncnc2cc1OCCCN1CCCC1 [Compound 19, 4-(4-bromo-2-fluoroanilino)-6-methoxy-7-(3-(pyrrolidine-1-yl)propoxy)quinazoline] | 0.561 | 1.66 | 0.11 | 1.09 | 2.76 | 0.0256 | 1.96 | 0.113 | 0.112 | 0.0212 | 0.0063 | 2.06 | 1.43 | 0.0382 | 0.0157 | 0.0091 | 0.22 | 1.06 | 0.0106 | 4.65 | IC50 (HCC827): 0.0001 µM; IC50 (EGFR): 0.0663 µM; MTD [1]: 250 to 500 mg/kg; IC50 (CFPAC-1): 4.08 µM; IC50 (AXL): 1.55 µM; IC50 (Bel-7402): 3.59 µM
6 | COc1cc2c(Nc3ccc(F)c(Cl)c3)ncnc2cc1OCCCN(C)C [Compound 38, 4-(3-chloro-4-fluoroanilino)-6-methoxy-7-(3-(dimethylamino)-propoxy)quinazoline] | 0.621 | 2.66 | 0.115 | 1.56 | 3.85 | 0.0356 | 2.06 | 0.268 | 0.178 | 0.0265 | 0.0077 | 2.26 | 2.36 | 0.0452 | 0.0289 | 0.0198 | 0.325 | 1.46 | 0.0176 | 5.93 | IC50 (HCC827): 0.0007 µM; IC50 (EGFR): 0.101 µM; MTD [1]: 125 to 250 mg/kg; IC50 (CFPAC-1): 5.79 µM; IC50 (AXL): 2.15 µM; IC50 (Bel-7402): 5.94 µM
